Test results from PMC9569988 (International Journal of Molecular Sciences, 2022).
“And” between values parts separate entries of the source, which are not always exact repeats. Equal entries are not always repeated. “Also recorded” adds a separate entry of the source.

Columns and labels:
SADS-CoV [1] = experiment: microbe, parasite or virus in culture; assay type: cell-based, Swine acute diarrhea syndrome coronavirus; settings: for inhibition at 10 µM: Swine acute diarrhea syndrome coronavirus, Huh-7, read-out: inhibition rate of SADS-CoV viral replication (qPCR)
SADS-CoV [2] = experiment: microbe, parasite or virus in culture; assay type: cell-based; settings: Swine acute diarrhea syndrome coronavirus, Huh-7
SADS-CoV [3] = assay type: cell-based, Swine acute diarrhea syndrome coronavirus
SADS-CoV [4] = assay type: cell-based, Swine acute diarrhea syndrome coronavirus; remark: listed apart in the source
SADS-CoV [5] = assay type: cell-based, Swine acute diarrhea syndrome coronavirus; remark: listed apart in the source
SADS-CoV [6] = assay type: cell-based, Swine acute diarrhea syndrome coronavirus; remark: listed apart in the source
SADS-CoV [7] = assay type: cell-based, Swine acute diarrhea syndrome coronavirus; remark: listed apart in the source
in vitro = settings: human
SADS-CoV [8] = assay type: cell-based, Swine acute diarrhea syndrome coronavirus; remark: listed apart in the source
[9] = system: SADS-CoV nucleocapsid protein; assay type: cell-based, Swine acute diarrhea syndrome coronavirus

Structure (SMILES) | CPE inhibition in SADS-CoV infection (SADS-CoV [1]) | inhibition at 10 µM (SADS-CoV [1]) | EC50 (SADS-CoV [2]) | decrease of viral RNA expression in the cells (SADS-CoV [3]) | viral titers in the supernatant (infectious progeny) (SADS-CoV [4]) | effect on virus internalization (SADS-CoV [5]) | SADS-CoV titer (TCID50) at 24 hpi (SADS-CoV [6]) | virus RNA level in the supernatant when added after virus entry (SADS-CoV [7]) | CC50 (in vitro) | effect on virus binding compared with positive control (SADS-CoV [8]) | decrease of viral RNA in the supernatant (SADS-CoV [7]) | expression of viral proteins in cells (immunoblot) [9] | CC50 (Huh7 cells) | decrease of SADS-CoV RNA in binding assay (SADS-CoV [8]) | reduction of viral RNA compared with the positive control (SADS-CoV [7]) | viral RNA decrease (SADS-CoV [7])
COc1ccc2cc1Oc1ccc(cc1)C[C@H]1c3c(cc4c(c3Oc3cc5c(cc3OC)CCN(C)[C@@H]5C2)OCO4)CCN1C [Cepharanthine] | significantly exhibited CPE inhibitions | > 60% | 789 nM | 72.9% and 57.5% | at the ”Entry” stage could reduce infectious progeny | less function | viral titer was decreased; also recorded: also effective; also recorded: showed a reduction in SADS-CoV viral progeny | could not inhibit SADS-CoV replication | 16200 nM |  |  |  |  |  |  | 
Nc1ccn([C@@H]2O[C@H](CO)[C@@H](O)C2(F)F)c(=O)n1 [Gemcitabine] | significantly exhibited CPE inhibitions | > 60% | 117 nM | less remarkable differences | exhibited inhibitory effects only when they were added after viral entry | no statistically significant difference |  |  | 88500 nM | no statistically significant difference | 1.8 log | inhibition effect | low cytotoxicity |  |  | 
CN(C)c1ccc2nc3ccc(=[N+](C)C)cc-3sc2c1 [Methylene blue] | significantly exhibited CPE inhibitions | > 60% | 218 nM |  | strong inhibitory activity against viral replication during both periods | no distinct effect | inhibit SADS-CoV infection; also recorded: inhibition effect got better |  | > 25000 nM |  |  | inhibition of viral protein expression | low cytotoxicity | 78.5% and 88.5% | 2- to 3 log | 3 log
COc1c(C)c2c(c(O)c1C/C=C(\C)CCC(=O)OCCN1CCOCC1)C(=O)OC2 [Mycophenolate mofetil] | significantly exhibited CPE inhibitions | > 60% | 1700 nM | 91.5% and 65.8% | exhibited inhibitory effects only when they were added after viral entry | no statistically significant difference |  |  | > 100000 nM | no statistically significant difference | 0.5 log | inhibition effect | low cytotoxicity |  |  | 
COc1c(C)c2c(c(O)c1C/C=C(\C)CCC(=O)O)C(=O)OC2 [Mycophenolic acid] | significantly exhibited CPE inhibitions | > 60% | 560 nM | 96.7% and 93.9% | exhibited inhibitory effects only when they were added after viral entry | no statistically significant difference |  |  | > 100000 nM | no statistically significant difference | 0.9 log | inhibition effect | low cytotoxicity |  |  | 
